In publication PMC11561622, “Evaluating Antimalarial Proteasome Inhibitors for Efficacy in Babesia Blood Stage Cultures” (ACS Omega, 2024):
pEC50, pIC50: −log10 of the molar value.

Legend:
B. divergens = tested on: B. divergens; parameters: method as in PMID 30103207; conditions: bovine erythrocyte cultures, cited from earlier work
β1 subunit of Bd20S = assay: Fluorogenic kinetic assay of enriched Bd20S with PA28α and the β1 substrate Ac-nPnD-amc (50 mM HEPES pH 7.5, 1 mM DTT), no preincubation stated, rate of amc release read between 60 and 90 min, 8 µL volume.; format: biochemical; conditions: n = 3
Protocol: (§1) To assess the enzyme activity, 8 ng of purified preparation was preincubated with 0 to 4000 nM recombinant human PA28α for 1 h at room temperature (RT). The enzyme activity was then assayed with 50 μM Suc-LLVY-amc in 50 mM HEPES, pH 7.5, and 1 mM DTT in the presence of 250 nM PA28α. To evaluate the substrate specificity for β5, β2, and β1 subunits, a set of available proteasome substrates was screened that included Suc-LLVY-amc, Z-VLR-amc and Z-LLE-amc, Ac-FnKL-amc, Ac-nPnD-amc, Ac-RYFD-amc, Ac-FRSR-amc, and Ac-GWYL-amc. Bd20S was initially activated with PA28α and the rate of release of 7-amino-4-methyl coumarin (amc) was quantified over time following addition of the substrates. For control, 6 μM marizomib (MZB, MedChemExpress) was used to ensure substrate cleavage by proteasome. For inhibition studies, IC50 values were measured using presteady-state enzyme kinetics. Five or 100 nL of inhibitor at concentrations ranging from 10 mM to 170 nM was dispensed using the ECHO 650 liquid handler (Beckman). Subsequently, 4 μL of 100 μM substrate was added, followed by 4 μL of Bd20S, and the release of amc was immediately measured. The IC50 values were calculated from the fluorescence units per second (RFU/s) recorded between 60 and 90 min after the reaction. […] Data were analyzed and plotted using GraphPad software.

β2 subunit of Bd20S = assay: Fluorogenic kinetic assay of enriched Bd20S with PA28α and the β2 substrate Z-VLR-amc (50 mM HEPES pH 7.5, 1 mM DTT), no preincubation stated, rate of amc release read between 60 and 90 min, 8 µL volume.; format: biochemical; conditions: n = 3
Protocol: as §1

β5 subunit of Bd20S = assay: Fluorogenic kinetic assay of enriched Bd20S with PA28α and the β5 substrate Ac-FnKL-amc (50 mM HEPES pH 7.5, 1 mM DTT), no preincubation stated, rate of amc release read between 60 and 90 min, 8 µL volume.; format: biochemical; conditions: n = 3
Protocol: as §1

[1] = tested on: B. divergens proteasome β5 subunit; format: biochemical, Babesia divergens; conditions: Suc-LLVY-amc; for proteasome activity relative to activity with PA28α: Buffer B
Protocol: (§2) B. divergens and B. microti protein lysates were prepared from infected red blood cells. Briefly, red blood cells were lysed with 0.15% saponin prepared in 1× Phosphate-Buffered Saline (PBS), pH 7.5, to release intact parasites. Parasites were washed with 1× PBS, pH 7.5 (PBS), by centrifugation and the pellets were stored at −80 °C in PBS plus 20% glycerol. To prepare protein lysates for enzymatic assays, parasites were thawed and transferred to 50 mM HEPES (pH 7.5), 10 μM E64, 100 μM AESBF, 1 μM Pepstatin A, and 1 mM DTT (all Sigma-Aldrich). Cells were ruptured by ultrasonication with an amplitude of 0.5 for 3 cycles of 15 s on ice. To prepare protein lysates for activity-based probing and proteasome purification, parasites were thawed and transferred to 20 mM Tris-HCl, pH 7.5, 1 mM DTT, 10 μM E64, and 5% glycerol. The lysate was sonicated on ice for 3 times and clarified by centrifugation at 17,000g for 10 min at 4 °C.
To further improve the detection of the β5 subunit activity with the Suc-LLVY-amc substrate of the Babesia proteasome as previously published,[27] we aimed to further optimize assay conditions. However, to reduce the number of experimental animals in the study, assay conditions were optimized using protein lysates of B. divergens, which can be grown in vitro, instead of B. microti lysates, which need to be maintained in mice. […] Assay conditions were optimized in 50 μL volumes in round-bottom 96-well plates. Two assay buffers were evaluated. Buffer A, as described previously,[27] consists of 20 mM HEPES, pH 8, 1 mM ATP, and 1 μM E64, while Buffer B consists of 50 mM HEPES, pH 7.5, 5 mM ATP, 10 μM E64, 100 μM AESBF, 1 μM Pepstatin A, and 1 mM DTT. Buffers A and B were tested with either 0.02% SDS or 6.67 ng of PA28 as activators of the proteasome activity. […] The release of the AMC fluorophore was monitored at 37 °C in a Synergy HTX multimode reader (BioTek) with excitation and emission wavelengths set to 340 and 460 nm, respectively.
Proteasome activity in B. microti and B. divergens lysates was screened in the presence of carmaphycin B (CPB) and numerous analogs that were previously designed to target the P. falciparum 20S proteasome.[30] A pool of lysates was made for each species to ensure that equal amounts of the lysates were used in each inhibition reaction. Inhibitors were transferred to black 384-well plates with the ATS acoustic transfer system (ATS-100, Biosera). Lysates were incubated with inhibitors for 30 min at room temperature and activity was assayed in 30 μL reactions. Each reaction mixture contained 5 μL of Babesia lysate, 10 nL of the inhibitor (final concentration of 133.33 nM), and 25 μL of assay buffer with 25 μM substrate succinyl-Leu-Leu-Val-Tyr-7-amido-4-methylcoumarin (Suc-LLVY-amc). The release of the AMC fluorophore was monitored at 37 °C in a Synergy HTX multimode reader (BioTek Instruments, Winooski, VT) with excitation and emission wavelengths set to 340 and 460 nm, respectively. Activity was quantified as RFU per second and normalized to the DMSO control reactions.

[2] = tested on: B. microti proteasome β5 subunit; assay: β5 proteasome activity in B. microti lysates (Suc-LLVY-amc); format: biochemical, Babesia microti; conditions: 133.33 nM inhibitor, relative to DMSO
Protocol: as §2
To further improve the detection of the β5 subunit activity with the Suc-LLVY-amc substrate of the Babesia proteasome as previously published,[27] we aimed to further optimize assay conditions. However, to reduce the number of experimental animals in the study, assay conditions were optimized using protein lysates of B. divergens, which can be grown in vitro, instead of B. microti lysates, which need to be maintained in mice. […] Two assay buffers were evaluated. […] The release of the AMC fluorophore was monitored at 37 °C in a Synergy HTX multimode reader (BioTek) with excitation and emission wavelengths set to 340 and 460 nm, respectively.
Proteasome activity in B. microti and B. divergens lysates was screened in the presence of carmaphycin B (CPB) and numerous analogs that were previously designed to target the P. falciparum 20S proteasome.[30] […] The release of the AMC fluorophore was monitored at 37 °C in a Synergy HTX multimode reader (BioTek Instruments, Winooski, VT) with excitation and emission wavelengths set to 340 and 460 nm, respectively. Activity was quantified as RFU per second and normalized to the DMSO control reactions.

[3] = tested on: endogenous polyubiquitinated proteins in B. divergens; assay: Western blot of polyubiquitinated proteins in treated B. divergens cultures; format: cell-based, Babesia divergens; conditions: 200 nM, 24 h, anti-Ubiquitin K48 western blot, vs 0.1% DMSO
Protocol: To assess the on-target effect of proteasome inhibition, protein lysates of B. divergens isolated from bovine erythrocyte cultures were evaluated for the accumulation of polyubiquitinated proteins. The B. divergens cultures underwent two 12 h treatments (totaling 24 h) with 200 nM of the inhibitor in culture medium. Parasites were released from RBCs and protein lysates were prepared as described above. The resulting samples were then centrifuged at 15,000g for 15 min at 4 °C and protein concentrations of the resulting supernatant were determined using Bradford assay.[29] Samples were prepared for SDS-PAGE in reducing Laemmli buffer supplemented with β-mercaptoethanol. Ten micrograms of protein was applied per lane and proteins were separated on gradient (4–15%) Criterion TGX Stain-Free Precast gels (BioRad) in Tris-Glycine-SDS running buffer (25 mM Tris, 192 mM glycine, and 0.1% (w/vol) SDS, pH 8.3) and visualized using TGX stain-free chemistry (BioRad). […] After washing (3 × 10 min) in PBS-T, signals were detected using Clarity Max Western ECL substrate (BioRad), visualized using a ChemiDoc MP imager, analyzed, and adjusted using the ImageLab freeware (BioRad).

[4] = tested on: catalytic subunits of Bd20S; assay: Activity-based probe labeling (Me4BodipyFL-Ahx3Leu3VS) of Bd20S catalytic subunits; format: binding, Babesia divergens; conditions: lysates from CFZ- and CPB-treated cells, vs vehicle
Bd20S = assay: Fluorogenic substrate screen with Bd20S/PA28α with and without marizomib; format: biochemical, Babesia divergens; conditions: 6 μM MZB
Protocol: as §1

## COc1ccc(C[C@H](NC(=O)[C@H](C)NC(=O)CN2CCOCC2)C(=O)N[C@@H](Cc2ccccc2)C(=O)C2(C)CO2)cc1 (stereo in doubt) [ONX-0914]
B. divergens
  concentration range significantly reducing B. divergens growth: 25 to 200 nM

## CCCCCC(=O)N[C@H](C(=O)N[C@@H](CCS(C)(=O)=O)C(=O)N[C@@H](CC(C)C)C(=O)[C@@]1(C)CO1)C(C)C [CPB, carmaphycin B]
β1 subunit of Bd20S
  pIC50: < 5.52
β2 subunit of Bd20S
  pIC50: 7.46
β5 subunit of Bd20S
  pIC50: 7.56

## CC(C)C[C@H](NC(=O)[C@H](CCc1ccccc1)NC(=O)CN1CCOCC1)C(=O)N[C@@H](Cc1ccccc1)C(=O)N[C@@H](CC(C)C)C(=O)[C@@]1(C)CO1 [carfilzomib]
[1]; 133.33 nM inhibitor, relative to DMSO
  inhibition of β5 activity in B. divergens lysate (in words): completely inactivate
[1]; B. divergens lysate, with PA28α
  decrease of enzyme activity: > 95%
[2]
  inhibition of β5 activity in B. microti lysate (in words): inhibited
[3]
  accumulation of endogenous polyubiquitinated proteins: marked accumulation
[4]
  labeling of catalytic subunits by activity-based probe: significantly reduced
B. divergens
  concentration range significantly reducing B. divergens growth: 25 to 200 nM
B. divergens; read-out: EC50 B. divergens growth
  pEC50: 7.54

## CC[C@H](C)[C@H](NC(=O)[C@H]([C@@H](C)CC)N(C)C(C)=O)C(=O)N[C@H](C(=O)N[C@@H](CC(C)C)C(=O)[C@@]1(C)CO1)[C@@H](C)O [epoxomicin]
B. divergens
  concentration range significantly reducing B. divergens growth: 25 to 200 nM

## C[C@@]12OC(=O)[C@]1([C@@H](O)[C@@H]1C=CCCC1)NC(=O)[C@@H]2CCCl [marizomib]
Bd20S
  activity with all fluorogenic substrates in presence of inhibitor: eliminated

## PA28α: recombinant human proteasome activator PA28α (Uniprot Q06323)
[1]; B. divergens lysate, compared with SDS
  increase of enzyme activity by activator: 3 fold

## PA28β: human proteasome activator subunit PA28β (BioTechne #E-382)
[1]; B. divergens lysate
  proteasome activity relative to activity with PA28α: 14.41%

## PA28γ: human proteasome activator subunit PA28γ (BioTechne #E-384)
[1]; B. divergens lysate
  proteasome activity relative to activity with PA28α: 12.83%
